Reference: ChEMBL document CHEMBL4715808, “Discovery of (1S,2R,3S,4S,5R,6R)-2-Amino-3-[(3,4-difluorophenyl)sulfanylmethyl]-4-hydroxy-bicyclo[3.1.0]hexane-2,6-dicarboxylic Acid Hydrochloride (LY3020371·HCl): A Potent, Metabotropic Glutamate 2/3 Receptor Antagonist with Antidepressant-Like Activity” (J Med Chem, 2016)

What was measured:
[1] = target: T1, Metabotropic glutamate receptor 3 (Homo sapiens, UniProt Q14832); test: Displacement of [3H]-LY459477 from recombinant human mGlu3 receptor expressed in hamster AV12 cell membranes co-expressing rat EAAT1 incubated for 90 mins by top count scintillation method; set-up: species or system Cell membrane
T1 sequence (Q14832 whole entry): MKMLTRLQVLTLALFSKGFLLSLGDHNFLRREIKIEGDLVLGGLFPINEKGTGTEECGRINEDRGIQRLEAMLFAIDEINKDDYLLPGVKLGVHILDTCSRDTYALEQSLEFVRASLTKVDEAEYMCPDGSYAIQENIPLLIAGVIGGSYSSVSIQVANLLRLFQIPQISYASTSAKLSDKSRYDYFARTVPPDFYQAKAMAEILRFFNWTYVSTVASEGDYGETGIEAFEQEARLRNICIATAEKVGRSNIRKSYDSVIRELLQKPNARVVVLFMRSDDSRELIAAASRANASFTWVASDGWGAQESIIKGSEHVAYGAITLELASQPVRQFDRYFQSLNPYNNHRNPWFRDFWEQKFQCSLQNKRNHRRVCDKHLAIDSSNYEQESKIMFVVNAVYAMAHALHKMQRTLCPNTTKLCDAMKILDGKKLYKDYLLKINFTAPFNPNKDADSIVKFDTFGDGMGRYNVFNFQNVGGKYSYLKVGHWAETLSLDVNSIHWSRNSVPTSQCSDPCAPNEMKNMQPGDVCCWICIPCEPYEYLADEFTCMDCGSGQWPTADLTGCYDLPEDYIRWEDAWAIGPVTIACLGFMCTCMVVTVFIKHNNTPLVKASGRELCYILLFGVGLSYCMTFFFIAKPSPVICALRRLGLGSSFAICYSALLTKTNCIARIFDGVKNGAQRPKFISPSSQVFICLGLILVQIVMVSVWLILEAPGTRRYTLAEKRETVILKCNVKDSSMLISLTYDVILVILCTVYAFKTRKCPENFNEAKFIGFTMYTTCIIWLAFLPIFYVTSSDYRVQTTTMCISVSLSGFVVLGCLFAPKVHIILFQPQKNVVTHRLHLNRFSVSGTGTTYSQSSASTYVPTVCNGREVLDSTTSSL

[2] = target: T1, Metabotropic glutamate receptor 3; test: Antagonist activity at human recombinant mGlu3 receptor stably expressed in golden hamster AV12 cells co-expressing rat EAAT1 assessed as reduction in DCG IV-induced inhibition of forskolin-stimulated cAMP accumulation preincubated for 20 mins followed by incubation with cAMP-d2 conjugate and anti-cAMP cryptate for 1 hr by HTRF assay; assay type: functional, cell-based
[3] = target: T2, Metabotropic glutamate receptor 2 (Homo sapiens, UniProt Q14416)
T2 sequence (Q14416 whole entry): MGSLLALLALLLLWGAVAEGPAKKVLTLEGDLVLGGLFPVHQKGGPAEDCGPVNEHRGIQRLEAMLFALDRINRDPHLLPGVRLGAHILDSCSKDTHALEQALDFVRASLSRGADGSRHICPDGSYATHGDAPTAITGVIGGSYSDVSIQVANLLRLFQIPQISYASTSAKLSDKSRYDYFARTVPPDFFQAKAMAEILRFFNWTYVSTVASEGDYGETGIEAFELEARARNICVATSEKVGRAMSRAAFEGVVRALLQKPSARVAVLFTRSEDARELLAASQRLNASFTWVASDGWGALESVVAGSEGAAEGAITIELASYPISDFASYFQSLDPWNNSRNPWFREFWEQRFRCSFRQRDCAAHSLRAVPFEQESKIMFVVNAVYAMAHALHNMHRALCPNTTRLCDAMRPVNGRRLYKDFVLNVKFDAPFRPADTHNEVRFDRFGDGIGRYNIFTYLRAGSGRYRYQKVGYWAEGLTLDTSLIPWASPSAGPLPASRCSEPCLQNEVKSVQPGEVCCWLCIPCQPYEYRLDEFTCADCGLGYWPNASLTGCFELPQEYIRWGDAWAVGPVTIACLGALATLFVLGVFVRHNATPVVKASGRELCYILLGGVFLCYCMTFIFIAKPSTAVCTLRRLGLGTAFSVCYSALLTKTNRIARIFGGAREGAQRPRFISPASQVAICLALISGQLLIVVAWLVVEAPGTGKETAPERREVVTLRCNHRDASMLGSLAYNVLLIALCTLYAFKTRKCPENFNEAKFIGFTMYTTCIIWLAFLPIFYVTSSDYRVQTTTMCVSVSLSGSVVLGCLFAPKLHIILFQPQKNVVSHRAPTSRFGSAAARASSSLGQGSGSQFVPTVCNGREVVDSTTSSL
Description: Antagonist activity at human recombinant mGlu2 receptor stably expressed in golden hamster AV12 cells co-expressing rat EAAT1 assessed as reduction in DCG IV-induced inhibition of forskolin-stimulated cAMP accumulation preincubated for 20 mins followed by incubation with cAMP-d2 conjugate and anti-cAMP cryptate for 1 hr by HTRF assay

[4] = target: T2, Metabotropic glutamate receptor 2; remark: listed apart in the source
Description: Displacement of [3H]-LY459477 from recombinant human mGlu2 receptor expressed in hamster AV12 cell membranes co-expressing rat EAAT1 incubated for 90 mins by top count scintillation method

[5] = Protein binding in rat plasma assessed as unbound fraction; assay type: ADME, cell-free
[6] = Metabolic stability of compound in rat hepatocytes assessed as parent compound loss at 2 uM; assay type: ADME, cell-based, Hepatocyte; conditions: read-out: Drug degradation
[7] = target: T3, Metabotropic glutamate receptor 1 (Homo sapiens, UniProt Q13255); test: Agonist activity at human recombinant mGlu1 stably expressed in golden hamster AV12 cell membrane co-expressing Gq assessed as assessed as increase in calcium influx incubated for 90 to 120 min by Fluo-4-AM dye based FLIPR assay; assay type: functional, cell membranes
T3 sequence (Q13255 whole entry): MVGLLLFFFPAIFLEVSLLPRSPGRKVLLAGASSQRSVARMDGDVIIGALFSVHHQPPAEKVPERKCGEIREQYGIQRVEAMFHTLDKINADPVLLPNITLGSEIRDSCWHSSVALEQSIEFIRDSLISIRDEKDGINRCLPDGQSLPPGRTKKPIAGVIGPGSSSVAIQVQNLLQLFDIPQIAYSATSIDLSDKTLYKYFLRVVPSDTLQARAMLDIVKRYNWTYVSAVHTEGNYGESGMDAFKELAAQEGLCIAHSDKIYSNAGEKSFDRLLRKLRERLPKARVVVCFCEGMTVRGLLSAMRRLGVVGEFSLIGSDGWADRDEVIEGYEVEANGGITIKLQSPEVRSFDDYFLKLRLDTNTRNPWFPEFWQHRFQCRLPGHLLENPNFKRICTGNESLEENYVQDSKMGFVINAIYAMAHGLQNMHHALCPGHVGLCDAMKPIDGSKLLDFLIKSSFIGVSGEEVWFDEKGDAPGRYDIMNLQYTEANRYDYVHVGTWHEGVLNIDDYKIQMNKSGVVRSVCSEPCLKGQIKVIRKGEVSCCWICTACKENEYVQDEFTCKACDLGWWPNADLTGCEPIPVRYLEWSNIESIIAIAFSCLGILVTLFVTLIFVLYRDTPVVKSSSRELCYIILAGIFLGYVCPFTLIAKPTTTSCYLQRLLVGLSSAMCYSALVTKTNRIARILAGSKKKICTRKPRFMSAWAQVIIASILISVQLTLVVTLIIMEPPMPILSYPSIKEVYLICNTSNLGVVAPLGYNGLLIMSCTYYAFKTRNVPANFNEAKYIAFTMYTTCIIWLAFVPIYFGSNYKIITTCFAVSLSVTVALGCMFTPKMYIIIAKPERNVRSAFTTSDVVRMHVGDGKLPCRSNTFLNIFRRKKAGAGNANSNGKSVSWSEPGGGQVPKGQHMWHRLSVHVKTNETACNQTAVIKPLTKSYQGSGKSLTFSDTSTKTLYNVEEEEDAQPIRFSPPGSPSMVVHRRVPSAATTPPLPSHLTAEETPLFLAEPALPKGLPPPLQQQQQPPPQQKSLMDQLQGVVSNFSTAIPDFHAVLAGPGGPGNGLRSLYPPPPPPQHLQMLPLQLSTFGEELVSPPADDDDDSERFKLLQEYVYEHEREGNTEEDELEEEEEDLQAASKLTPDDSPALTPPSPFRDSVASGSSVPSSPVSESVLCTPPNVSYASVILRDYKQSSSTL

[8] = Dose normalized AUC in CD1 mouse plasma in fasting state at 11 mg/kg, ip administered as single dose measured after 24 hrs by LC-MS/MS analysis; assay type: ADME, organism-based; conditions: in vivo
[9] = target: T1, Metabotropic glutamate receptor 3; test: Antagonist activity at human recombinant mGlu3 stably expressed in golden hamster AV12 cell membrane co-expressing Galpha15 assessed as assessed as reduction in glutamate-induced calcium influx incubated for 90 to 120 min by Fluo-4-AM dye based FLIPR assay; assay type: functional, cell membranes
[10] = Aqueous solubility of compound at pH 7.4; assay type: physicochemical; conditions: aqueous medium
[11] = target: T4, Metabotropic glutamate receptor 6 (Homo sapiens, UniProt O15303); test: Antagonist activity at human recombinant mGlu6 stably expressed in golden hamster AV12 cell membrane co-expressing Galpha15 assessed as reduction in glutamate-induced calcium influx incubated for 90 to 120 min by Fluo-4-AM dye based FLIPR assay; assay type: functional, cell membranes
T4 sequence (O15303 whole entry): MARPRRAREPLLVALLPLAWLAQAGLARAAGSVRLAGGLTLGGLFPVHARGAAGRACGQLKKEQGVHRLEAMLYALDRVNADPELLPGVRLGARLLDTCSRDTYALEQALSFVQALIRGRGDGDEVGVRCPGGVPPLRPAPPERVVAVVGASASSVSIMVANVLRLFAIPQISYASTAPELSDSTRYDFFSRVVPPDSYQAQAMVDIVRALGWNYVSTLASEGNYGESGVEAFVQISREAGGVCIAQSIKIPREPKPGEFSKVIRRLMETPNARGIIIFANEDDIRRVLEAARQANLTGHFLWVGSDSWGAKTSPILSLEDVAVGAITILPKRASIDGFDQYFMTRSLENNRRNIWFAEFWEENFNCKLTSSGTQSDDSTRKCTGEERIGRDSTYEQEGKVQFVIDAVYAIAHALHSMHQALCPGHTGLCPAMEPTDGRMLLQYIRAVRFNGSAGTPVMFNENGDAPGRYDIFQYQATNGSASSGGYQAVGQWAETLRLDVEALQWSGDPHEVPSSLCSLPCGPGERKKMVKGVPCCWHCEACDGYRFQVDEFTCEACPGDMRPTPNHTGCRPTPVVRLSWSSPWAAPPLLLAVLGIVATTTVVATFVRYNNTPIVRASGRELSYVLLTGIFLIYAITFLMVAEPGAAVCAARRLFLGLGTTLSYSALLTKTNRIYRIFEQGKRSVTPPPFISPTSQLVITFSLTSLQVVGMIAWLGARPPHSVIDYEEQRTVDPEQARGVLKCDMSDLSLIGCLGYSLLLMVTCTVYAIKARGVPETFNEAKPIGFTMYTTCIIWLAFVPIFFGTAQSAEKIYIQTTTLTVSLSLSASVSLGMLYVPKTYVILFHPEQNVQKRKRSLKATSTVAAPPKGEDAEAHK

[12] = Tmax in CD1 mouse plasma in fasting state at 11 mg/kg, ip administered as single dose measured after 24 hrs by LC-MS/MS analysis; assay type: ADME, organism-based
Mus musculus [13] = test: Antidepressant activity in ip dosed male Swiss mouse assessed as reduction in immobility time measured for last 4 mins of 6 mins test by forced swim test; assay type: functional; conditions: 0.1 h
[14] = target: T5, Metabotropic glutamate receptor 4 (Homo sapiens, UniProt Q14833); test: Agonist activity at human recombinant mGlu4 stably expressed in golden hamster AV12 cell membrane co-expressing Galpha15 assessed as assessed as increase in calcium influx incubated for 90 to 120 min by Fluo-4-AM dye based FLIPR assay; assay type: functional, cell membranes
T5 sequence (Q14833 whole entry): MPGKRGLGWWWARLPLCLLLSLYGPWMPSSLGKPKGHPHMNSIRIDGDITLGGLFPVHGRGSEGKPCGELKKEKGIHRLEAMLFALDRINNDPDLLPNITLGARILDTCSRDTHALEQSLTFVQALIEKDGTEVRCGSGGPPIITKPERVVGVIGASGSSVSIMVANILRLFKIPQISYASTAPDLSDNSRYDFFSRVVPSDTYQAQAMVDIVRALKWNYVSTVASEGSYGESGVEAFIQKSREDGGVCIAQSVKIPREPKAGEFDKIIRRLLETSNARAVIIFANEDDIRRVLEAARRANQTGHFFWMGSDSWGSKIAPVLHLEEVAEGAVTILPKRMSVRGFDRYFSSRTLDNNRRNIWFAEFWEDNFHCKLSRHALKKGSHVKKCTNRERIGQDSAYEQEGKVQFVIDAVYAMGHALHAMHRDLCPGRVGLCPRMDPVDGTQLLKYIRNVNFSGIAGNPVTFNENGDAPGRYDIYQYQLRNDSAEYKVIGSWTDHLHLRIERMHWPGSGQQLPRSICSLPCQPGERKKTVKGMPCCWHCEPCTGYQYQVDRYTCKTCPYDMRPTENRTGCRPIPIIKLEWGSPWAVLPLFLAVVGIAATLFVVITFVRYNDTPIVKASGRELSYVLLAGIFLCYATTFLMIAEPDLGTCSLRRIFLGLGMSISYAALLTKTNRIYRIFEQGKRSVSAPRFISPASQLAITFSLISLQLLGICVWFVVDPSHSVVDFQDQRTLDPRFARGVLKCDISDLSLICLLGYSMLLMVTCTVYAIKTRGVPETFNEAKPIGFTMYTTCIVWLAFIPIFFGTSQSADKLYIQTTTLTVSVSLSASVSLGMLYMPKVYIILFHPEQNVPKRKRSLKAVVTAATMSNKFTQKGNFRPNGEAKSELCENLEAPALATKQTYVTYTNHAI

[15] = Clearance in male Sprague-Dawley rat at 0.3 to 10 mg/kg, iv; assay type: ADME, organism-based; conditions: in vivo, dose 0.3-10 mg/kg
[16] = target: T6, Metabotropic glutamate receptor 5 (Homo sapiens, UniProt P41594); test: Agonist activity at human recombinant mGlu5 stably expressed in golden hamster AV12 cell membrane co-expressing Gq assessed as assessed as increase in calcium influx incubated for 90 to 120 min by Fluo-4-AM dye based FLIPR assay; assay type: functional, cell membranes
[17] = AUC (0 to 24 hrs) in CD1 mouse plasma in fasting state at 11 mg/kg, ip administered as single dose measured after 24 hrs by LC-MS/MS analysis; assay type: ADME, organism-based; set-up: route intraperitoneal, dose 11 mg/kg, time 24 hrs
[18] = Half life in CD1 mouse plasma in fasting state at 3.3 mg/kg, ip administered as single dose measured after 24 hrs by LC-MS/MS analysis; assay type: ADME, organism-based
[19] = Cmax in CD1 mouse plasma in fasting state at 11 mg/kg, ip administered as single dose measured after 24 hrs by LC-MS/MS analysis; assay type: ADME, organism-based; set-up: route intraperitoneal, dose 11 mg/kg, time 24 hrs
[20] = AUC (0 to 24 hrs) in CD1 mouse plasma in fasting state at 3.3 mg/kg, ip administered as single dose measured after 24 hrs by LC-MS/MS analysis; assay type: ADME, organism-based; set-up: route intraperitoneal, time 24 hrs, dose 3.3 mg/kg
[21] = Tmax in CD1 mouse plasma in fasting state at 3.3 mg/kg, ip administered as single dose measured after 24 hrs by LC-MS/MS analysis; assay type: ADME, organism-based
[22] = target: T3, Metabotropic glutamate receptor 1; test: Antagonist activity at human recombinant mGlu1 stably expressed in golden hamster AV12 cell membrane co-expressing Gq assessed as reduction in glutamate-induced calcium influx incubated for 90 to 120 min by Fluo-4-AM dye based FLIPR assay; assay type: functional, cell membranes
Mus musculus [23] = test: Antidepressant activity in male Swiss mouse assessed as reduction in immobility time at 1 to 10 mg/kg, ip measured for last 4 mins of 6 mins test by forced swim test relative to control; assay type: functional; conditions: dose 1-10 mg/kg, 0.1 h
CYP2C9 = CYP2C9 (Homo sapiens, UniProt P11712); test: Inhibition of human CYP2C9 at 10 uM relative to control; assay type: ADME
[24] = Unbound plasma concentration in CD1 mouse at 10 mg/kg, ip administered as single dose by LC-MS/MS analysis; assay type: ADME, organism-based; conditions: in vivo
[25] = Unbound brain concentration in CD1 mouse at 10 mg/kg, ip administered as single dose by LC-MS/MS analysis; assay type: ADME, organism-based; conditions: in vivo
[26] = Tmax in CD1 mouse plasma in fasting state at 1.1 mg/kg, ip administered as single dose measured after 24 hrs by LC-MS/MS analysis; assay type: ADME, organism-based
[27] = Protein binding in human plasma assessed as unbound fraction; assay type: ADME, cell-free
[28] = Cmax in CD1 mouse plasma in fasting state at 3.3 mg/kg, ip administered as single dose measured after 24 hrs by LC-MS/MS analysis; assay type: ADME, organism-based; set-up: route intraperitoneal, dose 3.3 mg/kg, time 24 hrs
[29] = Agonist activity at human recombinant mGlu7 stably expressed in golden hamster AV12 cell membrane co-expressing Galpha15 assessed as assessed as increase in calcium influx incubated for 90 to 120 min by Fluo-4-AM dye based FLIPR assay; assay type: cell membranes
[30] = Metabolic stability of compound in mouse hepatocytes assessed as parent compound loss at 2 uM; assay type: ADME, cell-based, Hepatocyte; conditions: read-out: Drug degradation
[31] = Dose normalized AUC in CD1 mouse plasma in fasting state at 1.1 mg/kg, ip administered as single dose measured after 24 hrs by LC-MS/MS analysis; assay type: ADME, organism-based; conditions: in vivo
[32] = Metabolic stability of compound in dog hepatocytes assessed as parent compound loss at 2 uM; assay type: ADME, cell-based, Canis lupus familiaris, Hepatocyte; conditions: read-out: Drug degradation
CYP3A4 = CYP3A4 (Homo sapiens, UniProt P08684); test: Inhibition of human CYP3A4 at 10 uM relative to control; assay type: ADME
[33] = Unbound plasma concentration in CD1 mouse at 3 mg/kg, ip administered as single dose by LC-MS/MS analysis; assay type: ADME, organism-based; conditions: in vivo
[34] = Half life in CD1 mouse plasma in fasting state at 11 mg/kg, ip administered as single dose measured after 24 hrs by LC-MS/MS analysis; assay type: ADME, organism-based
[35] = Dose normalized AUC in CD1 mouse plasma in fasting state at 3.3 mg/kg, ip administered as single dose measured after 24 hrs by LC-MS/MS analysis; assay type: ADME, organism-based; conditions: in vivo
[36] = target: T6, Metabotropic glutamate receptor 5; test: Antagonist activity at human recombinant mGlu5 stably expressed in golden hamster AV12 cell membrane co-expressing Gq assessed as reduction in glutamate-induced calcium influx incubated for 90 to 120 min by Fluo-4-AM dye based FLIPR assay; assay type: functional, cell membranes
[37] = Metabolic stability of compound in human hepatocytes assessed as parent compound loss at 2 uM; assay type: ADME, cell-based, Hepatocyte; conditions: read-out: Drug degradation
[38] = AUC (0 to 24 hrs) in CD1 mouse plasma in fasting state at 1.1 mg/kg, ip administered as single dose measured after 24 hrs by LC-MS/MS analysis; assay type: ADME, organism-based; set-up: route intraperitoneal, dose 1.1 mg/kg, time 24 hrs
[39] = target: T5, Metabotropic glutamate receptor 4; test: Antagonist activity human recombinant mGlu4 stably expressed in golden hamster AV12 cell membrane co-expressing Galpha15 assessed as reduction in glutamate-induced calcium influx incubated for 90 to 120 min by Fluo-4-AM dye based FLIPR assay; assay type: functional, cell membranes
[40] = Unbound brain concentration in CD1 mouse at 1 mg/kg, ip administered as single dose by LC-MS/MS analysis; assay type: ADME, organism-based; conditions: in vivo
[41] = Unbound plasma concentration in CD1 mouse at 1 mg/kg, ip administered as single dose by LC-MS/MS analysis; assay type: ADME, organism-based; conditions: in vivo
[42] = Half life in CD1 mouse plasma in fasting state at 1.1 mg/kg, ip administered as single dose measured after 24 hrs by LC-MS/MS analysis; assay type: ADME, organism-based
CYP2D6 = CYP2D6 (Homo sapiens, UniProt P10635); test: Inhibition of human CYP2D6 at 10 uM relative to control; assay type: ADME
[43] = target: T4, Metabotropic glutamate receptor 6; test: Agonist activity at human recombinant mGlu6 stably expressed in golden hamster AV12 cell membrane co-expressing Galpha15 assessed as assessed as increase in calcium influx incubated for 90 to 120 min by Fluo-4-AM dye based FLIPR assay; assay type: functional, cell membranes
[44] = Antagonist activity at human recombinant mGlu7 stably expressed in golden hamster AV12 cell membrane co-expressing Galpha15 assessed as reduction in glutamate-induced calcium influx incubated for 90 to 120 min by Fluo-4-AM dye based FLIPR assay; assay type: cell membranes
[45] = Unbound brain concentration in CD1 mouse at 3 mg/kg, ip administered as single dose by LC-MS/MS analysis; assay type: ADME, organism-based; conditions: in vivo
[46] = Cmax in CD1 mouse plasma in fasting state at 1.1 mg/kg, ip administered as single dose measured after 24 hrs by LC-MS/MS analysis; assay type: ADME, organism-based; set-up: route intraperitoneal, dose 1.1 mg/kg, time 24 hrs
[47] = target: T2, Metabotropic glutamate receptor 2; test: […] at mGlu2 (unknown origin)

Question: For `N[C@]1(C(=O)O)[C@@H]2[C@@H](C(=O)O)[C@@H]2[C@@H](O)[C@H]1CSc1ccccc1`, which Ki [1] is on record?
Answer: Its Ki is 26 nM.

Question: What about the IC50 [2] of the same molecule?
Answer: The IC50 was 547 nM.

Question: Which results are given for `Cc1cc(SC[C@@H]2[C@@H](N)[C@H]3[C@H](C(=O)O)[C@H]3[C@]2(N)C(=O)O)ccc1F`?
Answer: IC50 [3]: 45.4 nM; Ki [1]: 36.1 nM; IC50 [2]: 163 nM; Ki [4]: 24 nM

Question: Which results are given for `CC(C)SC[C@@H]1[C@@H](O)[C@H]2[C@H](C(=O)O)[C@H]2[C@]1(N)C(=O)O`?
Answer: IC50 [3]: 2280 nM; Ki [4]: 1200 nM

Question: What does the source list for `Cl.N[C@]1(C(=O)O)[C@@H]2[C@@H](C(=O)O)[C@@H]2[C@H](O)[C@H]1CSc1ccc(F)c(F)c1`?
Answer: fraction unbound [5]: > 0.6; metabolised at 2 µM [6]: < 15%; EC50 [7]: > 25 µM; AUC/dose [8]: 4134 nM·h/mg/kg; IC50 [9]: 2.5 nM; solubility [10]: > 100 µM; IC50 [11]: 4.01 µM; Tmax [12]: 15 min; ED60 (Mus musculus [13]): 4.9 mg/kg; EC50 [14]: > 25 µM; clearance [15]: 5.83 mL/min/kg; EC50 [16]: > 25 µM; Ki [1]: 2.5 nM; AUC(0-t) at 24 h [17]: 45.5 µM·h; half-life [18]: 30 min; Cmax [19]: 38.4 µM; AUC(0-t) at 24 h [20]: 15.2 µM·h; Tmax [21]: 15 min; IC50 [22]: > 12.5 µM; %max (Mus musculus [23]): 67.4%; inhibition at 10 µM (CYP2C9): < 10%; Cp(f) [24]: 7.731 µM; Drug uptake(free) [25]: 151.9 nM; Tmax [26]: 15 min; fraction unbound [27]: > 0.6; Cmax [28]: 20.6 µM; EC50 [29]: > 16.7 µM; metabolised at 2 µM [30]: < 15%; AUC/dose [31]: 4571 nM·h/mg/kg; metabolised at 2 µM [32]: < 15%; inhibition at 10 µM (CYP3A4): < 10%; Cp(f) [33]: 3.956 µM; half-life [34]: 64.2 min; AUC/dose [35]: 4601 nM·h/mg/kg; IC50 [36]: > 12.5 µM; metabolised at 2 µM [37]: < 15%; AUC(0-t) at 24 h [38]: 5.03 µM·h; IC50 [39]: > 12.5 µM; Drug uptake(free) [40]: 8.1 nM; Cp(f) [41]: 840 nM; half-life [42]: 42 min; inhibition at 10 µM (CYP2D6): < 10%; EC50 [43]: > 25 µM; IC50 [44]: 1260 nM; Drug uptake(free) [45]: 47.3 nM; Cmax [46]: 4.17 µM

Question: Which IC50 [47] does the source give for `N[C@@]1(C(=O)O)C[C@@H](O)[C@H]2[C@H](C(=O)O)[C@H]21` here?
Answer: The IC50 was 8.6 nM.
